Values quoted from earlier work as cited in patent US20050158845A1 (priority 2001, published 2005).

Tested on: human hepatocyte and neuroblastoma cells
Settings: cited from earlier work

Structure (SMILES) | effects on hepatocyte and neuroblastoma cell metabolism
CCOP(=O)(OCC)Oc1ccc([N+](=O)[O-])cc1 [paraoxon] | opposite effects
CCOP(=S)(OCC)Oc1ccc([N+](=O)[O-])cc1 [parathion] | opposite effects
